Measured values published in patent publication US9675075B2, “Pest control composition” (MEIJI SEIKA PHARMA CO., LTD., priority 2007, dated 2017).

Assays:
Type in all cases: in vivo
[1] = tested on: Plutella xylostella; experiment: Test Example 3: pesticidal effect against Plutella xylostella, cabbage leaf disk, death rate of second-instar larvae and Colby theoretical value; details: other insecticide 0.156 ppm alone (compound 261 0 ppm)
Excerpt: A leaf disk having a diameter of 5.0 cmφ was cut out from a cabbage grown in a pot and was placed in a plastic cup. Test admixture solutions, prepared by diluting the composition of the present invention with a 50% aqueous acetone solution (0.05% Tween 20 added) to predetermined concentrations specified in Table 22, test single active ingredient solutions in which only compound 261 had been dissolved without mixing other insecticides, or test single active ingredient solutions in which only other insecticides had been dissolved without mixing any pyripyropene derivative were spread over the cabbage leaf disk. The leaf disk was then air dried. Five larvae at the second instar born of Plutella xylostella were released in the cup. Thereafter, the cup was lidded and was allowed to stand in a humidistat chamber (light period 16 hr-dark period 8 hr) (25° C.). […] Death rate (%)={number of dead larvae/(number of survived larvae+number of dead larvae)}×100
Colby's formula: Theoretical value (%)=100−(A×B)/100 […]
When the pesticidal effect (Table 22) of the composition of the present invention in an admixture form against Plutella xylostella exceeded the theoretical value calculated by the Colby's formula shown in Table 23, the admixture was determined to have a synergistic effect.

[2] = tested on: Aphis gossypii; experiment: Test Example 2: pesticidal effect against Aphis gossypii (Part 2), same test as Test Example 1 with other insecticides, death rate and Colby theoretical value; details: other insecticide 0.078 ppm alone (compound 261 0 ppm); for Theoretical value calculated by Colby's formula: Table 21; for Pesticidal effect against Aphis gossypii, death rate: cucumber leaf disk, 3 days
Excerpt: (§1) A leaf disk having a diameter of 2.0 cmφ was cut out from a cucumber grown in a pot and was placed in a 5.0 cm-Schale. Test admixture solutions, prepared by diluting the composition of the present invention with a 50% aqueous acetone solution (0.05% Tween 20 added) to predetermined concentrations specified in Table 18, test single active ingredient solutions in which only compound 261 had been dissolved without mixing other insecticides, or test single active ingredient solutions in which only other insecticides had been dissolved without mixing any pyripyropene derivative were spread over the cucumber leaf disk. The leaf disk was then air dried. Ten larvae at the first instar born of Aphis gossypii were released in the Schale. Thereafter, the Schale was lidded and was allowed to stand in a humidistat chamber (light period 16 hr-dark period 8 hr) (25° C.). […] Death rate (%)={number of dead larvae/(number of survived larvae+number of dead larvae)}×100
(§2) Colby's formula: Theoretical value (%)=100−(A×B)/100
(§3) When the pesticidal effect (Table 18) of the composition of the present invention in, an admixture form against Aphis gossypii exceeded the theoretical value calculated by the Colby's formula shown in Table 19, the admixture was determined to have a synergistic effect.
The same test as in Test Example 1 was performed, except that the other insecticides were changed to those specified in Table 20.

[3] = tested on: Aphis gossypii; experiment: Test Example 1: pesticidal effect against Aphis gossypii (Part 1), cucumber leaf disk, death rate of first-instar larvae and Colby theoretical value; details: other insecticide 0.078 ppm alone (compound 261 0 ppm); for Theoretical value calculated by Colby's formula: Table 19; for Death rate of Aphis gossypii by single active ingredient or admixture: cucumber leaf disk, first-instar larvae, 3 days
Excerpt: as §1, §2
wherein A: 100—(death rate when treatment was performed only with compound 261); and • B: 100—(death rate when treatment was performed only with each of flonicamid, acetamiprid, fipronil, imidacloprid)
as §3

SMILES	Theoretical value calculated by Colby's formula [2]	Pesticidal effect against Aphis gossypii, death rate [2]	Theoretical value calculated by Colby's formula [3]	Death rate of Aphis gossypii by single active ingredient or admixture [3]	other results
CCOCn1c(-c2ccc(Cl)cc2)c(C#N)c(Br)c1C(F)(F)F [chlorfenapyr]					Theoretical value calculated by Colby's formula ([1]; Table 23): 0%; Pesticidal effect against Plutella xylostella, deathrate ([1]; cabbage leaf disk, second-instar larvae, 3 days): 0%
CN/C(=N\[N+](=O)[O-])NCc1cnc(Cl)s1 [clothianidin]	79%	79%			
CN1COCN(Cc2cnc(Cl)s2)/C1=N\[N+](=O)[O-] [thiamethoxam]	65%	65%			
N#CCNC(=O)c1cnccc1C(F)(F)F [flonicamid]			10%	10%	
CN/C(=N/CC1CCOC1)N[N+](=O)[O-] (stereo not shown) [dinotefuran]	40%	40%			
C/C(=N\C#N)N(C)Cc1ccc(Cl)nc1 [acetamiprid]			58%	58%	
N#Cc1nn(-c2c(Cl)cc(C(F)(F)F)cc2Cl)c(N)c1[S+]([O-])C(F)(F)F (stereo not shown) [fipronil]			0%	0%	
O=[N+]([O-])NC1=NCCN1Cc1ccc(Cl)nc1 [imidacloprid]			20%	20%	
